Measured values reported in a melting point compilation (Tetko et al.).

| melting point [°C] | Compound |
| --- | --- |
| 187 to 189 | O=C(O)c1ccc(-c2ccccc2)cc1F |
| 145 to 147 | Cc1ccc(-c2nnc(Cl)c3ccccc23)cc1 |
| 129 to 131 | N#Cc1cnc2ccc(Cl)cc2c1Cl |
| 89 to 91 | N#Cc1ccc(C(O)C(=O)O)cc1 (stereo not drawn) |
| 89 to 93 | Cc1ccc(NC(=O)OCC(F)(F)F)cc1 |
| 85 to 87 | N#CCCN(C(=O)CCl)c1ccc(F)cc1 |
| 86 to 88 | CS(=O)(=O)c1cccc(C(=O)c2ccccc2)c1 |
| 166 to 168 | Cc1ccc(OCc2cccc(C(=O)O)c2)cn1 |
| 268 to 270 | Nc1cccc2c1C(=O)NC2=O |
| 134 to 136 | O=C(Cc1ccc(O)cc1)NCCO |
| 104 to 106 | O=C(/C=C/c1ccccc1)c1ccc(Br)cc1 |
| 153 to 155 | O=C(CCl)NC(Cc1c[nH]c2ccccc12)C(=O)O (stereo not drawn) |
| 73 to 77 | CCOC(=O)CNc1ccc(F)cc1 |
| 170 to 172 | Cc1nc(NCCc2ccccc2)sc1C(=O)O |
| 249 to 251 | Cc1csc2ncc(C(=O)O)c(=O)n12 |
| 157 to 159 | O=C(O)Cc1c[nH]c2ccc(Cl)cc12 |
| 103 to 105 | COc1ccc(C(=O)C2CCOCC2)cc1 |
| 112 to 114 | COc1ccc(-c2nc3c(s2)C(=O)CCC3)cc1 |
| 220 to 222 | O=C(O)c1ccnc(Br)c1[N+](=O)[O-] |

| melting point [°C] | Compound |
| --- | --- |
| 116 to 118 | O=c1oc2ccccc2o1 |
| 165 to 167 | COc1cc(C(C)=O)ccc1OCC(=O)O |
| 194 to 196 | CN(C)c1cc(C(=O)O)cc(Cl)n1 |
| 314 to 316 | CC(=O)Nc1ccc(C2NC(=O)NC2=O)cc1 (stereo not drawn) |
| 239 to 241 | CCNc1ccc(C(=O)O)cc1[N+](=O)[O-] |
| 282 to 284 | O=C(O)c1c[nH]nc1-c1ccc(F)c(Cl)c1 |
| 252 to 254 | Sc1nnc2sc3ccccc3n12 |
| 52 to 54 | CCOC(=O)COc1ccc(C(C)=O)cc1 |
| 178 to 180 | CN(C)C(=O)c1ccc(C(=O)O)cc1 |
| 204 to 206 | CCOc1cc(C(=O)O)cc(Cl)c1O |
| 168 to 170 | O=C(O)c1cc(Cl)c(Br)[nH]1 |
| 107 to 109 | COC(=O)c1cnc(-c2ccccc2)s1 |
| 354 to 356 | O=C(O)c1ccc(-c2noc(=O)[nH]2)cc1 |
| 167 to 169 | O=C(O)CCNC(=O)c1ccc(Cl)cc1 |
| 190 to 192 | O=C(O)c1ccccc1-c1nc2ccccc2s1 |
| 218 to 220 | CC(C)NS(=O)(=O)c1ccc(Cl)c(C(=O)O)c1Cl |
| 246 to 248 | O=C(O)c1cn(-c2ccccc2)nc1-c1ccc(Cl)cc1 |
| 76 to 78 | Cc1nc(CNc2ccc(F)cc2)cs1 |
| 154 to 156 | Cc1cc(N)ccc1C(N)=O |

| melting point [°C] | Compound |
| --- | --- |
| 218 to 220 | O=C(O)c1ccc(Cl)c(S(=O)(=O)N2CCCCC2)c1 |
| 118 to 120 | Nc1cc(-c2cccc(Cl)c2)nn1-c1ccccc1 |
| 144 to 146 | CC(=O)c1ccc(C)c(S(N)(=O)=O)c1 |
| 220 to 222 | O=C(CC(=O)Nc1ccccc1)Nc1ccccc1 |
| 309 to 311 | Cc1ccc(C(=O)O)cc1NC(=O)c1ccc(Br)cc1 |
| 211 to 213 | O=C(O)Cn1cccnc1=O |
| 113 to 115 | CC(C)c1ccc(-c2cc(N)on2)cc1 |
| 167 to 169 | Cc1nn(-c2ccc(F)cc2)nc1C(=O)O |
| 172 to 174 | COc1ccccc1C(=O)Nc1ccc(O)cc1 |
| 134 to 136 | O=C(O)C1CCCN1C(=O)c1ccccc1O (stereo not drawn) |
| 140 to 142 | O=C1Nc2ccccc2NC1CO (stereo not drawn) |
| 90 to 92 | O=S(=O)(Cl)c1ccc(Cl)c2ccccc12 |
| 189 to 191 | O=C(O)CCCCCNC1=NS(=O)(=O)c2ccccc21 |
| 254 to 256 | COc1ccc2sc(C(=O)O)c(C)c2c1 |
| 155 to 156 | O=C(O)c1ccccc1-n1ncc(Cl)c(Cl)c1=O |
| 182 to 184 | N#Cc1ccccc1Sc1ccc(C(=O)O)cc1 |
| 110 to 114 | COc1ccc(C=C2CCCc3c2nc2ccccc2c3C(=O)O)cc1OC |
| 256 to 258 | Nc1ccc(C(=O)Nc2nccs2)cc1 |
| 183 to 185 | O=C1NC(=O)c2cc(F)ccc21 |

Second part, the compound before the results:

| Compound | melting point [°C] |
| --- | --- |
| CC(=O)C(C#N)c1ccc(Cl)cc1 (stereo not drawn) | 129 to 131 |
| ClCc1coc(-c2cccs2)n1 | 45 to 57 |
| Nc1ccc(N2CCNC(=O)C2)c(Cl)c1 | 147 to 149 |
| O=CC(Br)C=O | 132 to 134 |
| Ic1ccc(OCc2ccncc2)cc1 | 152 to 154 |
| Oc1ccccc1SC(F)(F)F | 32 to 34 |
| COc1cccc2c1CCCC(=O)N2 | 159 to 161 |
| CCOC(=O)c1sc2[nH]cnc(=O)c2c1C | 233 to 235 |
| CC(C(=O)O)n1cccn1 (stereo not drawn) | 96 to 98 |
| CC(C)(C)OC(=O)NC(CC#N)c1ccccc1 (stereo not drawn) | 104 to 106 |
| O=C(O)CCCN1CCOC1=O | 73 to 75 |
| CC(C)c1c(C(=O)O)cnn1Cc1ccccc1 | 153 to 155 |
| Cc1cc(C(=O)Cl)sc1C | 59 to 61 |
| CSc1ccccc1NC(=O)C(C)Cl (stereo not drawn) | 59 to 61 |
| CCN(CC)S(=O)(=O)c1c[nH]c(C(=O)O)c1 | 250 to 252 |
| CC(Cl)C(=O)NC1CCN(Cc2ccccc2)CC1 (stereo not drawn) | 119 to 121 |
| N#Cc1nc(C2CC2)oc1N1CCNCC1 | 99 to 101 |
| O=c1c2c(-c3ccco3)csc2nc(S)n1-c1ccccc1 | 242 to 244 |
| COCC(C)NC(=O)CC#N (stereo not drawn) | 40 to 44 |
| Cc1ccc(N(C(=O)CCCl)C2C=CS(=O)(=O)C2)cc1C (stereo not drawn) | 122 to 124 |
| NNc1cccnc1Cl | 149 to 151 |
| Nc1ccc(N2CCC(O)CC2)cc1 | 171 to 173 |

| Compound | melting point [°C] |
| --- | --- |
| O=C(CCl)N1CCc2ccccc21 | 118 to 120 |
| C=CCn1nnnc1S | 66 to 68 |
| CCOC(=O)c1sc(N)c(C#N)c1C | 212 to 214 |
| CC(Cl)C(=O)Nc1ccc([N+](=O)[O-])cc1Cl (stereo not drawn) | 87 to 89 |
| CC(C)(C)n1cc(N)cn1 | 56 to 58 |
| COc1ccc(NS(=O)(=O)c2cc(N)ccc2OC)cc1 | 133 to 135 |
| CCn1c(SCC(=O)N2c3ccccc3Sc3ccccc32)nnc1-c1ccco1 | 152 to 154 |
| O=C(O)CCNS(=O)(=O)c1ccc2c(c1)OCCCO2 | 200 to 205 |
| Cc1cc(C(=O)CCl)c(C)n1-c1ncn[nH]1 | 180 to 182 |
| COc1ccc(OC)c(C(C)NC(=O)C(C)Cl)c1 (stereo not drawn) | 96 to 98 |
| O=Cc1cn2cc(Cl)ccc2n1 | 183 to 185 |
| COC(=O)c1ccc(S(N)(=O)=O)c([N+](=O)[O-])c1 | 139 to 141 |
| O=Cc1cc(Cl)cc([N+](=O)[O-])c1O | 105 to 107 |
| Cc1nn(C)c(Cl)c1Cn1cc(Br)cn1 | 52 to 54 |
| COc1cc(O)ncc1Br | 203 to 205 |
| Cc1ccc(C)c(-c2cnnc(N)n2)c1 | 179 to 181 |
| Cc1ccc(Oc2ccc(Cl)cc2NC(=O)CCl)cc1 | 87 to 89 |
| Cc1ccccc1-n1c(C)cc(C(=O)CCl)c1C | 65 to 67 |
| Cn1c(S)nnc1C1CCS(=O)(=O)C1 (stereo not drawn) | 151 to 153 |
| CN1CCN(c2nccc(Cl)n2)CC1 | 94 to 96 |
| COc1cc(C=O)ccc1OCc1ccncc1 | 106 to 108 |
| ClCc1csc(Cc2ccc(Cl)cc2)n1 | 68 to 70 |

| Compound | melting point [°C] |
| --- | --- |
| CC1CNc2ccccc2CN1C(=O)OC(C)(C)C (stereo not drawn) | 158 to 160 |
| Clc1ccc2c(c1)CCCN2 | 37 to 39 |
| CCc1ccc2c(c1)C(=O)C(=O)N2C | 96 to 98 |
| Cc1ccccc1-n1ccnc1S | 245 to 247 |
| COC(=O)c1cnc(N)nc1 | 209 to 211 |
| Cc1ccc(C#N)cc1S(N)(=O)=O | 194 to 196 |
| N#Cc1cc(N)ccc1Oc1ccc(C(F)(F)F)cc1 | 75 to 77 |
| CC(=O)N1CCN(CC#N)CC1 | 107 to 109 |
| c1cc2c[nH]nc2cn1 | 104 to 106 |
| COCCCNC(=O)CC#N | 63 to 65 |
| O=Cc1c[nH]c2ncccc12 | 211 to 213 |
| Nc1ccc(Oc2ccc(Cl)cn2)cc1 | 70 to 72 |
| O=C(O)CNS(=O)(=O)C1CCS(=O)(=O)C1 (stereo not drawn) | 306 to 308 |
| Sc1nnc(COc2ccc(Cl)cc2)n1Cc1ccccc1 | 211 to 213 |
| COc1cccc2c1OCCC2=O | 80 to 82 |
| N#Cc1c(N)nc2n1CCS2 | 216 to 218 |
| CC1CCc2c(sc3ncnc(Cl)c23)C1 (stereo not drawn) | 119 to 121 |
| Nc1cc(Cl)ccc1NCc1ccccc1 | 77 to 81 |
| O=Cc1ccccc1OCc1cccnc1 | 57 to 59 |
| NNc1ccc(S(N)(=O)=O)cn1 | 190 to 192 |
| COC(=O)c1cc2ccccc2cc1N | 99 to 101 |
| COC(=O)NCC(=O)O | 93 to 95 |

| Compound | melting point [°C] |
| --- | --- |
| Nc1ccc2c(ccn2CCN2CCOCC2)c1 | 102 to 104 |
| Nc1ccnn1CCc1ccccc1 | 67 to 69 |
| Clc1nccc(-n2cccn2)n1 | 118 to 120 |
| CN(C)C(Cc1ccccc1)C(=O)O (stereo not drawn) | 225 to 227 |
| CCOC=C1C(=O)N(c2ccccn2)C(=O)c2ccccc21 | 231 to 233 |
| O=C(O)C1CC2CCC(C1)N2C1CC1 (stereo not drawn) | 156 to 158 |
| BrC12CC3CC(C1)CC(Br)(C3)C2 | 108 to 110 |
| N#Cc1cc([N+](=O)[O-])ccc1S(=O)(=O)Cl | 99 to 101 |
| CC(=O)CC(=O)Nc1ccc(C)cc1Cl | 89 to 91 |
| Cc1sc2ncnc(SCC(=O)O)c2c1C | 215 to 217 |
| COc1cc(F)c(S(=O)(=O)Cl)c(F)c1 | 53 to 55 |
| Cc1cc(C=O)c(C)n1Cc1ccco1 | 87 to 89 |
| CCC(c1ccccc1)c1nnc(N)s1 (stereo not drawn) | 184 to 186 |
| Fc1cccc(-n2nnnc2S)c1 | 128 to 146 |
| O=C(CCl)N1CCOC2CCCCC21 (stereo not drawn) | 67 to 69 |
| CC(Cl)C(=O)Nc1ccccc1Oc1ccccc1 (stereo not drawn) | 64 to 66 |
| O=C(Cc1ccccn1)c1cccnc1 | 66 to 68 |
| CNC(=O)c1cccc(N)n1 | 102 to 104 |
| CN1CCN(c2ccc(N)cc2Cl)CC1 | 127 to 129 |
| CCc1nn2c(=O)cc(CCl)nc2s1 | 97 to 99 |
